Source: US20120095032A1, “METHODS FOR TREATING LEUKEMIA AND MYELODYSPLASTIC SYNDROME, AND METHODS FOR IDENTIFYING AGENTS FOR TREATING SAME” (Sanford-Burnham Medical Research Institute, priority 2007, published 2012)
Counter-ions that a name gives are not always drawn.

Key:
[1] = target: T1, HePTP (Homo sapiens, UniProt P35236); assay: HePTP HTS primary screen (colorimetric pNPP / Biomol Green); type: biochemical; conditions: 20 μM compound; for inhibition at 20 µM: read-out: % Inhib. at 20 μM
T1 sequence (P35236 1-360): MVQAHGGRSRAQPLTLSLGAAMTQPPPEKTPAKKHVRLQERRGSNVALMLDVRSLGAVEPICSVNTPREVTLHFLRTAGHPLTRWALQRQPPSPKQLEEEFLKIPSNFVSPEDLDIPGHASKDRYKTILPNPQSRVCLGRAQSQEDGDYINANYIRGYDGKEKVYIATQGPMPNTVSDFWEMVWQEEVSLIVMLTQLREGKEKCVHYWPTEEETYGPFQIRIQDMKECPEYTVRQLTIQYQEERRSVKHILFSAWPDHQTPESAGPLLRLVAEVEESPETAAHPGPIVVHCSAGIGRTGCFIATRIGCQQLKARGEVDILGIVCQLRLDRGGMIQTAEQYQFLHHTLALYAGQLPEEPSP
Text: (§1) The following assay can be conducted manually or can be carried out by a robotic station.
For this assay, HePTP catalyzes the following reaction:
wherein p-nitrophenyl phosphate serves as a substrate and is cleaved to form p-nitrophenol and phosphate. The liberated phosphate complexes with the Biomol Green™ reagent to provide a quantitative colorimetric value for the amount of substrate cleaved.
(§2) Compounds are then serially diluted in 100% DMSO, and then diluted with water to 10% final DMSO concentration.
(§3) The primary screening actives can then proceed to the dose-response confirmation stage.

[2] = target: T1, HePTP; assay: HePTP dose-response confirmation screening; type: biochemical; conditions: for IC50: 10 concentrations, 2-fold serial dilution, pNPP substrate; for n / nH (Hill coefficient): Hill coefficient of the dose-response curve
Text: as §1, §2, §3
* n represents the Hill coefficient. This coefficient is derived from the Hill equation which has the formula: […]
wherein θ is the fraction of ligand binding sites filled, L is the inhibitor concentration, Ka is the inhibitor concentration producing half occupation of the ligand binding sites, and n is the Hill coefficient.

SMILES	inhibition at 20 µM [1] [%]	IC50 [2] [nM]	n / nH (Hill coefficient) [2]	% Inhib. at 20 μM [1] [%]
N#Cc1c(N2CCCC2)nc(N)c2c(N)nc(N3CCCC3)cc12 [1,8-Diamino-3,6-dipyrrolidin-1-yl-2,7-naphthyridine-4-carbonitrile]	61.3	6960	0.99	–
CCc1ccc(OCC(=O)NC2=CC(=O)/C(=C3/Nc4ccccc4O3)C=C2)cc1 [N-[(4Z)-4-(3H-Benzooxazol-2-ylidene)-3-oxo-1-cyclohexa-1,5-dienyl]-2-(4-ethylphenoxy)acetamide]	59	5280	0.29	–
Cc1ccc(C)n1C(Cc1ccccc1)C(=O)O (centres unmarked) [2-(2,5-Dimethylpyrrol-1-yl)-3-phenyl-propanoic acid]	102	420	–	–
Cc1cccc(Nc2nn3c(=O)c4ccccc4nc3s2)c1 [2-(3-Methylphenylamino)-5H-[1,3,4]thiadiazolo[2,3-b]quinazolin-5-one]	53.9	2740	1.32	–
COc1cccc(C(=O)NC2CC3CCCC(C2)N3CC(=O)Nc2ccccc2)c1 (centres unmarked) [3-methoxy-N-[9-(phenylcarbamoylmethyl)-9-azabicyclo[3.3.1]non-7-yl]benzamide hydrochloride]	103	4670	4.22	–
O=C(O)c1cccc(-n2cccc2/C=N/O)c1 [3-[2-(Hydroxyiminomethyl)pyrrol-1-yl]benzoic acid]	58.1	1400	1.45	–
Cc1ccc(-c2nn3c(C)nnc3s2)cc1NC(=O)c1ccc(-c2ccc(Cl)cc2Cl)o1 [5-(2,4-Dichlorophenyl)-N-[2-methyl-5-(2-methyl-6-thia-1,3,4,8-tetrazabicyclo[3.3.0]octa-2,4,7-trien-7-yl)phenyl]furan-2-carboxamide]	92.4	2120	1.3	–
COc1ccc(OC)c(N2C(=O)[C@H]3C(c4ccccc4Cl)=NO[C@@H]3C2=O)c1 [(1S,5S)-2-(2-chlorophenyl)-7-(2,5-dimethoxyphenyl)-4-oxa-3,7-diazabicyclo[3.3.0]oct-2-ene-6,8-dione]	85.1	8250	2.27	–
COc1ccc2c(c1)=CC(=C1N=C(c3ccccc3)ON1)C(=O)N=2 (stereo in doubt) [(3Z)-6-methoxy-3-(5-phenyl-1,2,4-oxadiazol-3-ylidene)quinolin-2-one]	77.1	4230	4.29	–
O=C(O)c1ccccc1-c1ccc(/C=c2\sc3nc4cc(Br)cnc4n3c2=O)o1	102	1790	7.56	–

The remaining lines, values ahead:

inhibition at 20 µM [1] [%]	IC50 [2] [nM]	n / nH (Hill coefficient) [2]	% Inhib. at 20 μM [1] [%]	SMILES
98	100	0.6	–	Cn1nnnc1SCC1=C(C(=O)[O-])N2C(=O)[C@H](NC(=O)[C@H](O)c3ccccc3)[C@H]2SC1.[Na+] [Sodium (6R,7S)-7-[[(2R)-2-hydroxy-2-phenyl-acetyl]amino]-3-[(1-methyltetrazol-5-yl)sulfanylmethyl]-8-oxo-5-thia-1-azabicyclo[4.2.0]oct-2-ene-2-carboxylate]
103	1280	1.54	–	COc1cccc2c1NC(C(=O)O)C1CC=CC21 (centres unmarked) [6-methoxy-3a,4,5,9b-tetrahydro-3H-cyclopenta[c]quinoline-4-carboxylic acid]
103	200	2.11	–	O=C(O)C1Nc2c(O)cccc2C2C=CCC12 (centres unmarked) [6-hydroxy-3a,4,5,9b-tetrahydro-3H-cyclopenta[c]quinoline-4-carboxylic acid]
96.4	840	3.34	–	O=C(Oc1ccccc1)c1ccc2c(c1)C1C=CCC1C(C(=O)O)N2 (centres unmarked) [8-(phenoxycarbonyl)-3a,4,5,9b-tetrahydro-3H-cyclopenta[c]quinoline-4-carboxylic acid]
58.8	3770	7.72	–	O=C(O)CCC(=O)N1CCc2cc(S(=O)(=O)N3CCN(c4ccc(F)cc4)CC3)ccc21 [4-[5-[4-(4-Fluorophenyl)piperazin-1-yl]sulfonyl-2,3-dihydroindol-1-yl]-4-oxo-butanoic acid]
103	68300	1.24	–	O=C(CCS(=O)(=O)c1ccc(Br)cc1)NCc1cccs1 [3-(4-Bromophenyl)sulfonyl-N-(thiophen-2-ylmethyl)propanamide]
67.2	1150	2.13	–	O=C1Nc2ccccc2SC(c2ccccc2)C1O (centres unmarked) [4-Hydroxy-3-phenyl-2-thia-6-azabicyclo[5.4.0]undeca-7,9,11-trien-5-one]
93.1	1170	2.23	–	Cc1c(N2C(=O)c3ccc4c5c(ccc(c35)C2=O)CC4)c(=O)n(-c2ccccc2)n1C [2-(1,5-Dimethyl-3-oxo-2-phenyl-2,3-dihydro-1H-pyrazol-4-yl)-6,7-dihydro-1H-indeno[6,7,1-def]isoquinoline-1,3(2H)-dione]
62	4630	1.52	–	O=C(NCc1ccco1)c1c2c(nc3ccccc13)CCC2 [N-(Furan-2-ylmethyl)-2,3-dihydro-1h-cyclopenta[b]quinoline-9-carboxamide;]
54.1	990	1.02	–	O=C(c1ccc(=O)oc1)N1CCOCC1
–	10600	4.06	97.5	NC(=O)c1c(NC(=O)CSc2nnc(-c3ccco3)n2-c2ccccc2)sc2c1CCC2 [3-[[2-[[5-(2-furyl)-4-phenyl-1,2,4-triazol-3 - yl]sulfanyl]acetyl]amino]-4-thiabicyclo[3.3.0]octa-2,9-diene-2-carboxamide]
50.7	4970	2.07	–	O=C(COC(=O)c1cccc(S(=O)(=O)N2CCN(c3ccccc3)CC2)c1)NCc1ccco1 [2-Furylmethylcarbamoylmethyl 3-(4-phenylpiperazin-1-yl)sulfonylbenzoate]
103	1120	1.95	–	CCOC(=O)C1CCN(C(=O)Nc2ccc3nc(-c4ccco4)c(-c4ccco4)nc3c2)CC1 [Ethyl 1-[[2,3-bis(2-furyl)quinoxalin-6-yl]carbamoyl]piperidine-4-carboxylate]
84.9	1310	1.67	–	O=C1CC(=O)N(Cc2ccco2)C(=O)N1 [1-(2-Furylmethyl)-1,3-diazinane-2,4,6-trione]
102	410	2.41	–	Cc1ccc2c(c1)C1C=CCC1C(C(=O)O)N2 (centres unmarked) [8-methyl-3a,4,5,9b-tetrahydro-3H-cyclopenta[c]quinoline-4-carboxylic acid]
